Patent US7947733B2, “Phosphorylated pyrone analogs and methods” (Limerick BioPharma, priority 2007, dated 2011)

Experiments:
AdenosineA1 = target: T1, AdenosineA1 (Homo sapiens, UniProt P30542); test: GTPγS functional assay; format: biochemical; conditions: 10 μM
T1 sequence (P30542 1-326): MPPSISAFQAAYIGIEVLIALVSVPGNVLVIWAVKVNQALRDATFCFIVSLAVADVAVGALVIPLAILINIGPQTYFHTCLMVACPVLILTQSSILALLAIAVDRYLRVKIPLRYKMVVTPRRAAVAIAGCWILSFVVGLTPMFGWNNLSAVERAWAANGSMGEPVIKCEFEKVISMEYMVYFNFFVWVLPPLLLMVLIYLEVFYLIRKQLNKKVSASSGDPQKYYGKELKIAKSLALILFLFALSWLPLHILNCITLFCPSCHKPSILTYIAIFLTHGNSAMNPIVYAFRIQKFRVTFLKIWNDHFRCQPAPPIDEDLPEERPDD
Method: (§1) The compound is additionally tested in AdenosineA1, AdrenergicA2A, DopamineD25, Histamine H1-, and μ-Opiate GTPγS functional assays using a concentration of 10 μM.

AdrenergicA2A = target: T2, AdrenergicA2A (Homo sapiens, UniProt P08913); test: GTPγS functional assay; format: biochemical; conditions: 10 μM; potentially inverse agonist
T2 sequence (P08913 1-465): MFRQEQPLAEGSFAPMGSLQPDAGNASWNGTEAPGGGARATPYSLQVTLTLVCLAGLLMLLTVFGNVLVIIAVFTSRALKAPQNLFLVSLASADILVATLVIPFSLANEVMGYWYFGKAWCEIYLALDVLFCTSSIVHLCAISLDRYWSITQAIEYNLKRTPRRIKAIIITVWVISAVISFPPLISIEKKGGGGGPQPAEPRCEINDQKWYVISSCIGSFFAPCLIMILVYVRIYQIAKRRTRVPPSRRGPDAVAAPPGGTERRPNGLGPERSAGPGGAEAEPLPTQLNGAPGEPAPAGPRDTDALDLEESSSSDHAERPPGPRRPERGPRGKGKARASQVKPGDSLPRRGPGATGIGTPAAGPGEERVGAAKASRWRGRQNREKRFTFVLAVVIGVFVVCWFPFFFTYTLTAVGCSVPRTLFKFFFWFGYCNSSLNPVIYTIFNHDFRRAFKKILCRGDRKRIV
Method: as §1

antagonist activity (AdenosineA1): 48%
inhibition in GTPγS functional assay (AdrenergicA2A): marked negative inhibition
Compound: O=c1c(O)c(-c2ccc(O)c(OP(=O)(O)O)c2)oc2cc(O)cc(O)c12 [Quercetin-3′-O-phosphate]
